# From patent US8633200B2, “Inhibitors of human immunodeficiency virus replication” (priority 2010, dated 2014)
# Structures can show the parent of a compound that is named as a salt. Where two headings read alike, the source gives them in different places.
# Tested on: recombinant NL-Rluc virus (NL4-3 with Renilla Luciferase gene) in MT-2 cells
# Assay: Inhibition of HIV replication (NL-Rluc luciferase reporter virus, MT-2 cells)
# Assay type: cell-based, human immunodeficiency virus (HIV)
# Conditions: NL43, 120 h
SMILES,EC50 (read-out: Activity) [µM],EC50 (read-out: EC50 μM) [µM]
"COc1ccc(-c2cc3nc(C)c(C(OC(C)(C)C)C(=O)O)c(-c4cc(F)c5c(c4C)CCCO5)n3n2)cc1 (centres unmarked) [Example 92, 2-tert-Butoxy-2-(7-(8-fluoro-5-methylchroman-6-yl)-2-(4-methoxyphenyl)-5-methylpyrazolo[1,5-a]pyrimidin-6-yl)acetic acid, TFA salt]",0.1 to 1,–
"Cc1nc2cc(-c3cccc(OCc4ccccc4)c3)nn2c(-c2cc(F)c3c(c2C)CCCO3)c1C(OC(C)(C)C)C(=O)O (centres unmarked) [Example 93, 2-(2-(3-(Benzyloxy)phenyl)-7-(8-fluoro-5-methylchroman-6-yl)-5-methylpyrazolo[1,5-a]pyrimidin-6-yl)-2-tert-butoxyacetic acid, TFA salt]",< 0.1,0.1
"Cc1nc2cc(-c3cccc(OCc4ccccc4)c3)nn2c(-c2cc(F)c3c(c2C)CCCO3)c1[C@H](OC(C)(C)C)C(=O)O [Example 94, (2S)-2-(2-(3-(Benzyloxy)phenyl)-7-(8-fluoro-5-methylchroman-6-yl)-5-methyl-pyrazolo[1,5-a]pyrimidin-6-yl)-2-tert-butoxyacetic acid]",< 0.1,–
"Cc1nc2cc(-c3ccc(OCc4ccccc4)cc3)nn2c(-c2cc(F)c3c(c2C)CCCO3)c1C(OC(C)(C)C)C(=O)O (centres unmarked) [Example 95, 2-(2-(4-(Benzyloxy)phenyl)-7-(8-fluoro-5-methylchroman-6-yl)-5-methylpyrazolo[1,5-a]pyrimidin-6-yl)-2-tert-butoxyacetic acid, TFA salt]",< 0.1,–
"Cc1nc2cc(-c3ccc(Cl)cc3)nn2c(-c2cc(F)c3c(c2C)CCCO3)c1C(OC(C)(C)C)C(=O)O (centres unmarked) [Example 96, 2-tert-Butoxy-2-(2-(4-chlorophenyl)-7-(8-fluoro-5-methylchroman-6-yl)-5-methylpyrazolo[1,5-a]pyrimidin-6-yl)acetic acid, TFA salt]",0.1 to 1,–
"Cc1nc2cc(-c3cccc(Oc4ccccc4)c3)nn2c(-c2cc(F)c3c(c2C)CCCO3)c1C(OC(C)(C)C)C(=O)O (centres unmarked) [Example 97, 2-tert-Butoxy-2-(7-(8-fluoro-5-methylchroman-6-yl)-5-methyl-2-(3-phenoxyphenyl)pyrazolo[1,5-a]pyrimidin-6-yl)acetic acid, TFA salt]",< 0.1,0.06
"Cc1ccccc1-c1cc2nc(C)c(C(OC(C)(C)C)C(=O)O)c(-c3cc(F)c4c(c3C)CCCO4)n2n1 (centres unmarked) [Example 98, 2-tert-Butoxy-2-(7-(8-fluoro-5-methylchroman-6-yl)-5-methyl-2-o-tolylpyrazolo[1,5-a]pyrimidin-6-yl)acetic acid, TFA salt]",> 1,–
"COc1cccc(-c2cc3nc(C)c(C(OC(C)(C)C)C(=O)O)c(-c4cc(F)c5c(c4C)CCCO5)n3n2)c1 (centres unmarked) [Example 99, 2-tert-Butoxy-2-(7-(8-fluoro-5-methylchroman-6-yl)-2-(3-methoxyphenyl)-5-methylpyrazolo[1,5-a]pyrimidin-6-yl)acetic acid]",0.1 to 1,0.35
"CCc1ccc(-c2cc3nc(C)c(C(OC(C)(C)C)C(=O)O)c(-c4cc(F)c5c(c4C)CCCO5)n3n2)cc1 (centres unmarked) [Example 100, 2-tert-Butoxy-2-(2-(4-ethylphenyl)-7-(8-fluoro-5-methylchroman-6-yl)-5-methylpyrazolo[1,5-a]pyrimidin-6-yl)acetic acid, TFA salt]",0.1 to 1,–
"Cc1nc2cc(-c3cccc(OCc4ccc(F)cc4)c3)nn2c(-c2cc(F)c3c(c2C)CCCO3)c1C(OC(C)(C)C)C(=O)O (centres unmarked) [Example 101, 2-tert-Butoxy-2-(7-(8-fluoro-5-methylchroman-6-yl)-2-(3-(4-fluorobenzyloxy)phenyl)-5-methylpyrazolo[1,5-a]pyrimidin-6-yl)acetic acid, TFA salt]",< 0.1,–
"Cc1nc2cc(-c3cccc(OCc4ccccc4Cl)c3)nn2c(-c2cc(F)c3c(c2C)CCCO3)c1C(OC(C)(C)C)C(=O)O (centres unmarked) [Example 102, 2-tert-Butoxy-2-(2-(3-(2-chlorobenzyloxy)phenyl)-7-(8-fluoro-5-methylchroman-6-yl)-5-methylpyrazolo[1,5-a]pyrimidin-6-yl)acetic acid, TFA salt]",< 0.1,–
"COc1ccc(COc2cccc(-c3cc4nc(C)c(C(OC(C)(C)C)C(=O)O)c(-c5cc(F)c6c(c5C)CCCO6)n4n3)c2)cc1 (centres unmarked) [Example 103, 2-tert-Butoxy-2-(7-(8-fluoro-5-methylchroman-6-yl)-2-(3-(4-methoxybenzyloxy)phenyl)-5-methylpyrazolo[1,5-a]pyrimidin-6-yl)acetic acid, TFA salt]",< 0.1,–
"Cc1nc2cc(-c3cccc(OCc4cccc(Cl)c4)c3)nn2c(-c2cc(F)c3c(c2C)CCCO3)c1C(OC(C)(C)C)C(=O)O (centres unmarked) [Example 104, 2-tert-Butoxy-2-(2-(3-(3-chlorobenzyloxy)phenyl)-7-(8-fluoro-5-methylchroman-6-yl)-5-methylpyrazolo[1,5-a]pyrimidin-6-yl)acetic acid, TFA salt]",< 0.1,–
"Cc1ccc(-c2cc3nc(C)c(C(OC(C)(C)C)C(=O)O)c(-c4cc(F)c5c(c4C)CCCO5)n3n2)cc1OCc1ccccc1 (centres unmarked) [Example 105, 2-(2-(3-(Benzyloxy)-4-methylphenyl)-7-(8-fluoro-5-methylchroman-6-yl)-5-methylpyrazolo[1,5-a]pyrimidin-6-yl)-2-tert-butoxyacetic acid]",< 0.1,–
"Cc1nc2cc(-c3cccc(OCc4ccc(Cl)cc4)c3)nn2c(-c2cc(F)c3c(c2C)CCCO3)c1C(OC(C)(C)C)C(=O)O (centres unmarked) [Example 106, 2-tert-Butoxy-2-(2-(3-(4-chlorobenzyloxy)phenyl)-7-(8-fluoro-5-methylchroman-6-yl)-5-methylpyrazolo[1,5-a]pyrimidin-6-yl)acetic acid, TFA salt]",< 0.1,0.04
"Cc1nc2cc(-c3ccnc(OCc4ccccc4)c3)nn2c(-c2cc(F)c3c(c2C)CCCO3)c1C(OC(C)(C)C)C(=O)O (centres unmarked) [Example 107, 2-(2-(2-(Benzyloxy)pyridin-4-yl)-7-(8-fluoro-5-methylchroman-6-yl)-5-methylpyrazolo[1,5-a]pyrimidin-6-yl)-2-tert-butoxyacetic acid, TFA salt]",< 0.1,0.008
"Cc1nc2cc(-c3ccc(OCc4ccccc4)nc3)nn2c(-c2cc(F)c3c(c2C)CCCO3)c1C(OC(C)(C)C)C(=O)O (centres unmarked) [Example 108, 2-(2-(6-(Benzyloxy)pyridin-3-yl)-7-(8-fluoro-5-methylchroman-6-yl)-5-methylpyrazolo[1,5-a]pyrimidin-6-yl)-2-tert-butoxyacetic acid, TFA salt]",< 0.1,–
"Cc1nc2cc(-c3ccnc(F)c3)nn2c(-c2cc(F)c3c(c2C)CCCO3)c1C(OC(C)(C)C)C(=O)O (centres unmarked) [Example 109, 2-tert-Butoxy-2-(7-(8-fluoro-5-methylchroman-6-yl)-2-(2-fluoropyridin-4-yl)-5-methylpyrazolo[1,5-a]pyrimidin-6-yl)acetic acid, TFA salt]",0.1 to 1,0.27
"Cc1nc2cc(-c3cccc(C(=O)Nc4ccccc4)c3)nn2c(-c2cc(F)c3c(c2C)CCCO3)c1C(OC(C)(C)C)C(=O)O (centres unmarked) [Example 110, 2-tert-Butoxy-2-(7-(8-fluoro-5-methylchroman-6-yl)-5-methyl-2-(3-(phenylcarbamoyl)phenyl)pyrazolo[1,5-a]pyrimidin-6-yl)acetic acid, TFA salt]",0.1 to 1,–
"Cc1nc2cc(-c3cccc(C(=O)NCc4ccccc4)c3)nn2c(-c2cc(F)c3c(c2C)CCCO3)c1C(OC(C)(C)C)C(=O)O (centres unmarked) [Example 111, 2-(2-(3-(Benzylcarbamoyl)phenyl)-7-(8-fluoro-5-methylchroman-6-yl)-5-methylpyrazolo[1,5-a]pyrimidin-6-yl)-2-tert-butoxyacetic acid, TFA salt]",0.1 to 1,–
"Cc1nc2cc(-c3ccc(Oc4ccccc4)cc3)nn2c(-c2ccc3c(c2)CCCO3)c1C(OC(C)(C)C)C(=O)O (centres unmarked) [Example 112, 2-tert-Butoxy-2-(7-(chroman-6-yl)-5-methyl-2-(4-phenoxyphenyl)pyrazolo[1,5-a]pyrimidin-6-yl)acetic acid, TFA salt]",0.1 to 1,–
"Cc1nc2cc(-c3ccc4c(c3)CCCO4)nn2c(-c2ccc3c(c2)CCCO3)c1C(OC(C)(C)C)C(=O)O (centres unmarked) [Example 113, 2-tert-Butoxy-2-(2,7-di(chroman-6-yl)-5-methylpyrazolo[1,5-a]pyrimidin-6-yl)acetic acid, TFA salt]",0.1 to 1,0.11
"Cc1cccc(-c2cc3nc(C)c(C(OC(C)(C)C)C(=O)O)c(-c4ccc5c(c4)CCCO5)n3n2)c1 (centres unmarked) [Example 114, 2-tert-Butoxy-2-(7-(chroman-6-yl)-5-methyl-2-m-tolylpyrazolo[1,5-a]pyrimidin-6-yl)acetic acid, TFA salt]",0.1 to 1,–
"Cc1ccccc1-c1cccc(-c2cc3nc(C)c([C@H](OC(C)(C)C)C(=O)O)c(-c4cc(F)c5c(c4C)CCCO5)n3n2)c1 [Example 115, (2S)-2-(tert-Butoxy)-2-(7-(8-fluoro-5-methylchroman-6-yl)-5-methyl-2-(2′-methyl-[1,1′-biphenyl]-3-yl)pyrazolo[1,5-a]pyrimidin-6-yl)acetic acid]",< 0.1,0.02
"COc1ccccc1-c1cccc(-c2cc3nc(C)c([C@H](OC(C)(C)C)C(=O)O)c(-c4cc(F)c5c(c4C)CCCO5)n3n2)c1 [Example 116, (2S)-2-(tert-Butoxy)-2-(7-(8-fluoro-5-methylchroman-6-yl)-2-(2′-methoxy-[1,1′-biphenyl]-3-yl)-5-methylpyrazolo[1,5-a]pyrimidin-6-yl)acetic acid]",< 0.1,–
"COc1ccncc1-c1cccc(-c2cc3nc(C)c([C@H](OC(C)(C)C)C(=O)O)c(-c4cc(F)c5c(c4C)CCCO5)n3n2)c1 [Example 117, (2S)-2-(tert-Butoxy)-2-(7-(8-fluoro-5-methylchroman-6-yl)-2-(3-(4-methoxypyridin-3-yl)phenyl)-5-methylpyrazolo[1,5-a]pyrimidin-6-yl)acetic acid]",< 0.1,–
"Cc1nc2cc(-c3cccc(-c4ccccc4F)c3)nn2c(-c2cc(F)c3c(c2C)CCCO3)c1[C@H](OC(C)(C)C)C(=O)O [Example 118, (2S)-2-(tert-Butoxy)-2-(7-(8-fluoro-5-methylchroman-6-yl)-2-(2′-fluoro-[1,1′-biphenyl]-3-yl)-5-methylpyrazolo[1,5-a]pyrimidin-6-yl)acetic acid]",< 0.1,–
